The nature of one data set: in vitro. To be noted: % Viability non-Wnt responsive cells.
For data set [1], the target named is Wnt-responsive promoter (TCF/LEF). Put plainly: Wnt-dependent luciferase reporter assay. It counts as cell-based, murine. The essentials: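 Murine 3T3 fibroblasts carrying a TCF/LEF-driven luciferase reporter, stimulated with Wnt3a in the presence of increasing peptide concentrations or vehicle. Luminescence inhibition gave EC50 values in uM.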
The target of another data set is T1, β-catenin (Homo sapiens, UniProt P35222).
T1 sequence (P35222 1-781): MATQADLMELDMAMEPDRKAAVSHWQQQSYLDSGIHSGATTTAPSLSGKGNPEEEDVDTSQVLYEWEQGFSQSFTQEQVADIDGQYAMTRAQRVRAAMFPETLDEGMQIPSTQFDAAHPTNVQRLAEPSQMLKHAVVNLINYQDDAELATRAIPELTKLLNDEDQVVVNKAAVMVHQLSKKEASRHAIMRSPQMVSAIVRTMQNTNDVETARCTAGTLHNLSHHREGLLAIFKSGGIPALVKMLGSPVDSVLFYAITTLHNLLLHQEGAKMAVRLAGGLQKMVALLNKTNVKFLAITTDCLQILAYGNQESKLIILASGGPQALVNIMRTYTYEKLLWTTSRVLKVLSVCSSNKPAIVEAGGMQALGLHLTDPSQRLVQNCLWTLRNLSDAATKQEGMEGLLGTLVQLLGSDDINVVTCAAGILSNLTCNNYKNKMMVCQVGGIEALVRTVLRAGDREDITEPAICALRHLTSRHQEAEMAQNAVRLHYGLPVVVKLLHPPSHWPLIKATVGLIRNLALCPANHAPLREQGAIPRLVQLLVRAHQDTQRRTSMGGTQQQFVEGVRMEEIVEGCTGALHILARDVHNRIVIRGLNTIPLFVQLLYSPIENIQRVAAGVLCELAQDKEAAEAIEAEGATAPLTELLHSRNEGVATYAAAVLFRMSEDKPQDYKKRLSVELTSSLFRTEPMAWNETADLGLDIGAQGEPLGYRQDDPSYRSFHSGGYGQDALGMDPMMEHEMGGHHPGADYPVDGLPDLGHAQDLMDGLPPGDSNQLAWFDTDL
Put plainly: KD50 measurement using competitive fluorescence polarization (FP) with labelled TCF4. It counts as binding. To be noted: fluorescence polarization, β-catenin; for Kd: read-out: β-Cat FP KD. The essentials:
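Competitive FP in which unlabelled inhibitor (10 nM to 30 uM dilution series) displaces 5 nM labelled TCF4 from 100 nM β-catenin, room temperature. Read-out ex 470 nm, em 520 nm; experiment repeated three times.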
For orientation: Polarisation of emitted light reports the rotation of a fluorescent probe.

Results on 12 compounds are retold here after US12441768B2, “Compositions and methods for treating endometriosis” (EndoMet Biosciences, Inc., priority 2018, dated 2025).

Where a SMILES comes first, the peptide text is derived from it.

Take `CC[C@H](C)[C@H](NC(=O)[C@H](CC(C)C)NC(=O)[C@H](Cc1ccccc1)NC(=O)[C@H](Cc1c[nH]c2ccccc12)NC(=O)[C@H](CCSC)NC(=O)[C@H](CCCNC(=N)N)NC(=O)[C@H](CO)NC(=O)[C@@H](N)CCSC)C(=O)N[C@@H](CO)C(=O)N[C@@H](Cc1ccccc1)C(=O)N[C@@H](Cc1c[nH]c2ccccc12)C(=O)N[C@@H](CCSC)C(=O)NCC(=O)O` [compound 14] (H-MSRMWFLISFWMG-OH): the viability (usually a read-out of living cells in per cent, often relative to untreated cells) in “in vitro” was found to be 98%. The EC50 (in general, the concentration needed to bring the measured effect to its halfway point) in data set [1] was < 7.5 µM. For the same compound, the Kd (commonly the concentration at which binding is half-saturated) at β-catenin is > 30 µM.

Regarding `CC[C@H](C)[C@H](NC(=O)[C@H](CC(C)C)NC(=O)[C@H](Cc1ccccc1)NC(=O)[C@H](Cc1c[nH]c2ccccc12)NC(=O)[C@H](CCSC)NC(=O)[C@H](CCCNC(=N)N)NC(=O)[C@H](CO)NC(=O)[C@@H](N)CCSC)C(=O)N[C@@H](CO)C(=O)N[C@@H](Cc1ccccc1)C(=O)N[C@@H](Cc1c[nH]c2ccccc12)C(=O)N(C)[C@@H](C)C(=O)NCC(=O)O` [compound 16] (HELM PEPTIDE1{M.S.R.M.W.F.L.I.S.F.W.[meA].G}$$$$V2.0), the viability in the data set “in vitro” was determined as 92%. In data set [1], this compound had an EC50 of 15 to 22.5 µM. Further, the dissociation constant (Kd) at β-catenin was > 30 µM.

Take `CC[C@H](C)[C@H](NC(=O)[C@H](CC(C)C)NC(=O)[C@H](Cc1ccccc1)NC(=O)[C@H](Cc1c[nH]c2ccccc12)NC(=O)[C@@H](N)CCSC)C(=O)N[C@@H](CO)C(=O)N[C@@H](Cc1ccccc1)C(=O)N[C@@H](Cc1c[nH]c2ccccc12)C(=O)NCC(=O)O` [compound 17] (H-MWFLISFWG-OH): the viability in “in vitro” was 98%. Also, the EC50 in data set [1] was < 7.5 µM. Further, at β-catenin, the “β-Cat FP Hill slope” value was 1.66 and the Kd was 0.4 to 1 µM.

Take `CC[C@H](C)[C@@H]1NC(=O)[C@H](CO)NC(=O)[C@H](CCC(=O)O)NC(=O)[C@H](C)N(C)C(=O)[C@@H](N)CCCCNC(=O)CNC(=O)[C@H](Cc2c[nH]c3ccccc23)NC(=O)[C@H](C(C)C)NC(=O)[C@H](CCCNC(=N)N)NC(=O)[C@H](CCC(N)=O)NC(=O)[C@H](C(C)C)NC(=O)[C@H](Cc2c[nH]cn2)NC(=O)[C@H](CCC(=O)O)NC(=O)[C@H](CC(=O)O)NC(=O)[C@H](CC(C)C)NC1=O` [compound 18] (HELM PEPTIDE1{K.[meA].E.S.I.L.D.E.H.V.Q.R.V.W.G}$PEPTIDE1,PEPTIDE1,1:R3-15:R2$$$V2.0; bridges inferred): in the data set “in vitro”, the viability was determined as 90.2%. Further, in data set [1], the EC50 was > 30 µM. In addition, the Kd on β-catenin is > 30 µM.

Regarding `CC[C@H](C)[C@@H]1NC(=O)[C@H](CO)NC(=O)[C@H](CCC(N)=O)NC(=O)[C@H](C)N(C)C(=O)[C@@H](N)CCCCNC(=O)CNC(=O)[C@H](Cc2c[nH]c3ccccc23)NC(=O)[C@H](C(C)C)NC(=O)[C@H](CCCNC(=N)N)NC(=O)[C@H](CCC(N)=O)NC(=O)[C@H](C(C)C)NC(=O)[C@H](Cc2c[nH]cn2)NC(=O)[C@H](CCC(=O)O)NC(=O)[C@H](CC(=O)O)NC(=O)[C@H](CC(C)C)NC1=O` [compound 19] (HELM PEPTIDE1{K.[meA].Q.S.I.L.D.E.H.V.Q.R.V.W.G}$PEPTIDE1,PEPTIDE1,1:R3-15:R2$$$V2.0; bridges inferred), the viability in the data set “in vitro” was found to be 104%. Besides, in data set [1], the concentration for a half-maximal effect (EC50) is > 30 µM. The Kd on β-catenin is > 30 µM.

Take `CC[C@H](C)[C@@H]1NC(=O)[C@H](CO)NC(=O)[C@H](CCC(N)=O)NC(=O)[C@H](C)N(C)C(=O)[C@H](Cc2c[nH]c3ccccc23)NC(=O)[C@@H](N)CCCCNC(=O)CNC(=O)[C@H](Cc2c[nH]c3ccccc23)NC(=O)[C@H](C(C)C)NC(=O)[C@H](CCCNC(=N)N)NC(=O)[C@H](CCC(N)=O)NC(=O)[C@H](C(C)C)NC(=O)[C@H](Cc2c[nH]cn2)NC(=O)[C@H](CCC(N)=O)NC(=O)[C@H](CC(N)=O)NC(=O)[C@H](CC(C)C)NC1=O` [compound 20] (HELM PEPTIDE1{K.W.[meA].Q.S.I.L.N.Q.H.V.Q.R.V.W.G}$PEPTIDE1,PEPTIDE1,1:R3-16:R2$$$V2.0; bridges inferred): the viability in “in vitro” amounted to 106%. Moreover, the EC50 in data set [1] was > 30 µM. Also, the Kd at β-catenin was > 30 µM.

With `CC[C@H](C)[C@H](NC(=O)[C@H](CO)NC(=O)[C@H](CCC(=O)O)NC(=O)[C@H](Cc1c[nH]c2ccccc12)NC(=O)[C@@H](N)CCSC)C(=O)N[C@@H](CC(C)C)C(=O)N[C@@H](CC(=O)O)C(=O)N[C@@H](CCC(=O)O)C(=O)N[C@@H](Cc1c[nH]cn1)C(=O)N[C@@H](CCSC)C(=O)N[C@@H](CCC(N)=O)C(=O)N[C@@H](CCCNC(=N)N)C(=O)N[C@H](C(=O)N[C@@H](Cc1c[nH]c2ccccc12)C(=O)N[C@@H](CCCNC(=N)N)C(=O)NCC(=O)O)C(C)C` [compound 23] (H-MWESILDEHMQRVWRG-OH), the viability in the data set “in vitro” came to 98.9%. Also, the EC50 in data set [1] is > 30 µM. At β-catenin, the “β-Cat FP Hill slope” value is 0.71 and the Kd is < 0.4 µM.

Take `CC[C@H](C)[C@@H]1NC(=O)[C@H](CC(C)C)NC(=O)[C@H](Cc2ccccc2)NC(=O)[C@H](Cc2c[nH]c3ccccc23)NC(=O)[C@H](CCSC)NC(=O)[C@H](CCCNC(=N)N)NC(=O)[C@H](CO)NC(=O)[C@H](CCSC)NC(=O)[C@@H](N)CCCCNC(=O)CNC(=O)[C@H](CCCNC(=N)N)NC(=O)[C@H](Cc2c[nH]c3ccccc23)NC(=O)[C@H](Cc2ccccc2)NC(=O)[C@H](CO)NC1=O` [compound 24] (HELM PEPTIDE1{K.M.S.R.M.W.F.L.I.S.F.W.R.G}$PEPTIDE1,PEPTIDE1,1:R3-14:R2$$$V2.0; bridges inferred): the viability in the data set “in vitro” amounted to 96.8%. The 50% effective concentration (EC50) in data set [1] was > 30 µM. For the same compound, at β-catenin, the “β-Cat FP Hill slope” value was 1 and the Kd was < 0.4 µM.

Consider `CC[C@H](C)[C@@H]1NC(=O)[C@H](CC(C)C)NC(=O)[C@H](Cc2ccccc2)NC(=O)[C@H](Cc2c[nH]c3ccccc23)NC(=O)[C@H](CCSC)NC(=O)[C@H](CCCNC(=N)N)NC(=O)[C@H](CO)NC(=O)[C@H](CCSC)NC(=O)[C@@H](N)CCCCNC(=O)CNC(=O)[C@H](Cc2c[nH]c3ccccc23)NC(=O)[C@H](CC(C)C)NC(=O)[C@H](CO)NC1=O` [compound 28] (HELM PEPTIDE1{K.M.S.R.M.W.F.L.I.S.L.W.G}$PEPTIDE1,PEPTIDE1,1:R3-13:R2$$$V2.0; bridges inferred), for which the viability in the data set “in vitro” was 91%. Moreover, in data set [1], the EC50 was 22.5 to 30 µM.

On to `CC[C@H](C)[C@@H]1NC(=O)[C@H](Cc2c[nH]cn2)NC(=O)[C@H](CCC(=O)O)NC(=O)[C@H](Cc2ccccc2)NC(=O)[C@H](Cc2c[nH]c3ccccc23)NC(=O)[C@H](CO)NC(=O)[C@H]([C@@H](C)CC)NC(=O)[C@H](C)N(C)C(=O)[C@H](CC(C)C)NC(=O)[C@@H]2CCCN2C(=O)[C@H](CCSC)NC(=O)[C@@H](N)CCCCNC(=O)CNC1=O` [compound 29] (HELM PEPTIDE1{K.M.P.L.[meA].I.S.W.F.E.H.I.G}$PEPTIDE1,PEPTIDE1,1:R3-13:R2$$$V2.0; bridges inferred), for which, in the data set “in vitro”, the viability turned out to be 107%. Also, in data set [1], the concentration giving a half-maximal response (EC50) is > 30 µM. On β-catenin, the “β-Cat FP Hill slope” value amounted to 1.72 and the dissociation constant (Kd) was 0.4 to 1 µM.

`CC[C@H](C)[C@@H]1NC(=O)[C@H](CO)NC(=O)[C@H](CCC(=O)O)NC(=O)[C@H](C)N(C)C(=O)[C@H](CCSC)NC(=O)[C@@H](N)CCCCNC(=O)CNC(=O)[C@H](Cc2c[nH]c3ccccc23)NC(=O)[C@H](C(C)C)NC(=O)[C@H](CCCNC(=N)N)NC(=O)[C@H](CCC(N)=O)NC(=O)[C@H](C(C)C)NC(=O)[C@H](Cc2c[nH]cn2)NC(=O)[C@H](CCC(=O)O)NC(=O)[C@H](CC(=O)O)NC(=O)[C@H](CC(C)C)NC1=O` [compound 30] (HELM PEPTIDE1{K.M.[meA].E.S.I.L.D.E.H.V.Q.R.V.W.G}$PEPTIDE1,PEPTIDE1,1:R3-16:R2$$$V2.0; bridges inferred): the viability in “in vitro” worked out at 106%. In data set [1], the EC50 was > 30 µM. Besides, on β-catenin, the “β-Cat FP Hill slope” value is 0.7 and the Kd fell in the range of 1 to 10 µM.

As for `CC[C@H](C)[C@H](NC(=O)[C@H](CC(C)C)NC(=O)[C@H](Cc1ccccc1)NC(=O)[C@H](Cc1c[nH]c2ccccc12)NC(=O)[C@@H](N)CCSC)C(=O)N[C@@H](CS)C(=O)N[C@@H](Cc1ccccn1)C(=O)N[C@@H](Cc1c[nH]c2ccccc12)C(=O)NCC(=O)O` [compound 148] (HELM PEPTIDE1{M.W.F.L.I.C.[O=C([C@H](Cc1ccccn1)N[*:1])[*:2]].W.G}$$$$V2.0), the viability in “in vitro” was 95.5%. The compound further yielded an EC50 in data set [1] of 7.5 to 15 µM. On β-catenin, the “β-Cat FP Hill slope” value is reported as 0.7 and the Kd fell in the range of 0.4 to 1 µM.
